From patent US12281118B2, “Nitrogen-containing fused heterocyclic SHP2 inhibitor compound, preparation method, and use” (SHANGHAI RINGENE BIOPHARMA CO., LTD., priority 2018, dated 2025)
Read-outs that look alike come from different tables or passages of the source.

How the values were obtained:
SHP2 enzyme = SHP2 enzyme (Homo sapiens (Human), UniProt Q06124); assay: Inhibitory activity against SHP2 enzyme (Caliper conversion rate); type: biochemical; conditions: read-out: SHP2 Enzyme Inhibition IC50 Value
Experimental: (1) Preparing 1×Reaction Buffer according to the BPS Biosciences' Instructions for Use of the SHP2 enzyme. (2) Preparing a compound concentration gradient: Test the test compound at 10 μM under 3× dilution for 10 concentrations, diluting to a 100% dimethyl sulfoxide solution at a 100× final concentration in a 384-well plate, and diluting the compound with Precision 4× for 10 concentrations. Transferring 250 nL of the compound at the 100× final concentration to a target plate OptiPlate-384F using a dispenser Echo 550. […] (3) Preparing the activation peptide solution at a 5× final concentration with the 1×Reaction Buffer, adding 5 μL of the solution to a reaction plate, respectively, and centrifuging at 1000 rpm for 1 min. (4) Preparing an enzyme solution at a 2.5× final concentration with the 1×Reaction Buffer, adding 10 μL of the solution to the reaction plate, respectively, centrifuging at 1000 rpm for 1 min, and incubating at room temperature for 60 min. (5) Preparing a substrate peptide solution at a 2.5× final concentration with the 1×Reaction Buffer, centrifuging at 1000 rpm for 1 min, and incubating at room temperature for 30 min. (6) Adding 30 μL of stop test solution to stop the reaction, centrifuging at 1000 rpm for […], and mixing well by shaking. (7) Reading the conversion rate with a Caliper EZ Reader. (7) Data analysis:
Wherein: Conversion %/_sample is the reading of a conversion rate of a sample; Conversion %_min: mean of negative control wells, which represents the reading of a conversion rate in absence of enzyme activity wells; Conversion %_max: mean of a ratio of positive control wells, which represents the reading of a conversion rate in absence of compound inhibition wells.

MV4-11 leukemia cells = assay: Inhibition of proliferation of MV4-11 leukemia cells (CellTiter-Glo, 72 h); type: cell-based; conditions: read-out: IC50 value, MV4-11 cell proliferation
Experimental: Specific experimental procedures: 1) At Day 0: Inoculating trypsin-digested cells in 96-well plate and suspending the plate in cell culture medium; measure cell density using an automatic cell counter, diluting the cells with the culture medium to appropriate density, adding 100 μl of cell suspension in the 96-well plate, and incubating a cell-free medium as a control well in a cell incubator with […] at 37° C. overnight; 2) Day 1: Treating test compounds of the cells using a drug for a total of 8 concentrations, and diluting at a 3× concentration, wherein 10 μM is a starting test concentration of the test compounds. […] IC50 values are obtained by a four-parameter regression using software attached to the plate reader (the specific results are shown in Table 2).

[1] = Homo sapiens, MV4-11, 72 h, in uM

| SMILES | IC50 (SHP2 enzyme) [nM] | IC50 (MV4-11 leukemia cells; Homo sapiens, MV4-11, 72 h) [µM] | IC50 (MV4-11 leukemia cells; [1]) [µM] | IC50 (MV4-11 leukemia cells; 72 h) [µM] |
| --- | --- | --- | --- | --- |
| Cc1nc(N2CCC3(CC2)Cc2ccccc2[C@H]3N)n2ccnc2c1-c1ccnc(N)c1Cl [Example 15, (S)-1′-(8-(2-amino-3-chloropyridin-4-yl)-7-methylimidazo [1,2-c]pyrimidin-5-yl)-1,3-dihydrospiro [indene-2,4′-piperidine]-1-amine] | 12.1 | 0.135 | – | – |
| Cc1nc(N2CCC(C)(N)CC2)n2ccnc2c1-c1cccc(Cl)c1Cl [Comparative Compound 1, 1-(8-(2,3-dichlorophenyl)-7-methylimidazo [1,2-c]pyrimidin-5-yl)-4-methylpiperidin-4-amine, reference compound] | 141 | 1.41 | – | – |
| CC1(N)CCN(c2nc(CF)c(-c3cccc(Cl)c3Cl)c3nccn23)CC1 [Example 28, 1-(8-(2,3-dichlorophenyl)-7-(fluoromethylene)imidazole [1,2-c]pyrimidin-5-yl)-4-methylpiperidin-4-amine] | – | 2.01 | – | – |
| Cc1nc(N2CCC(C)(N)CC2)n2ccnc2c1Sc1cccc(Cl)c1Cl [Example 25, 1-(8 ((2,3-dichlorophenyl)sulfanyl)-7-methylimidazole [1,2-c]pyrimidin-5-yl)-4-methylpiperidin-4-amine] | – | 1.36 | – | – |
| CC1(N)CCN(c2ncc(-c3cccc(Cl)c3Cl)c3nccn23)CC1 [Comparative Compound 2, 1-(8-(2,3-dichlorophenyl)imidazo [1,2-c]pyrimidin-5-yl)-4-methylpiperidin-4-amine, reference compound] | 3460 | > 10 | – | – |
| CC1(N)CCN(c2nc(N)c(-c3cccc(Cl)c3Cl)c3nccn23)CC1 [Example 27, 5-(4-amino-4-methylpiperidin-1-yl)-8-(2,3-dichlorophenyl) imidazole [1,2-c] pyrimidin-7-amine] | 287 | – | – | 2.55 |
| Cc1cc(N2CCC(C)(N)CC2)n2cnnc2c1-c1cccc(Cl)c1Cl [Example 23, 1-(8-(2,3-dichlorophenyl)-7-methyl-[1,2,4]triazole [4,3-a]pyridin-5-yl)-4-methylpiperidin-4-amine] | – | – | > 10 | – |
| Cc1cc(N2CCC3(CC2)Cc2ccccc2[C@H]3N)n2ncnc2c1Sc1ccnc(N)c1Cl [Example 19, (S)-1′-(8-((2-amino-3-chloropyridin-4-yl)thio)-7-methyl-[1,2,4]triazolo [1,5-a]pyridin-5-yl)-1,3-dihydrospiro [indene-2,4′-piperidine]-1-amine] | 29.5 | 0.687 | – | – |
| Cc1nc(N2CCC3(CCC[C@H]3N)CC2)n2ccnc2c1Sc1ccnc(N)c1Cl [Example 26, (R)-8-(8-((2-amino-3-chloropyridin-4-yl)thio)-7-methylimidazole [1,2-c]pyrimidin-5-yl)-8-azaspiro [4.5] quin-1-amine] | 6.1 | 0.147 | – | – |
| Cc1nc(N2CCC(C)(N)CC2)n2ncnc2c1-c1cccc(Cl)c1Cl [Example 21, 1-(8-(2,3-dichlorophenyl)-7-methyl-[1,2,4]triazole [1,5-c]pyrimidin-5-yl)-4-methylpiperidin-4-amine] | – | – | > 10 | – |
| Cc1nc(N2CCC(C)(N)CC2)n2cnnc2c1-c1cccc(Cl)c1Cl [Example 22, 1-(8-(2,3-dichlorophenyl)-7-methyl-[1,2,4]triazole [4,3-c]pyrimidin-5-yl)-4-methylpiperidin-4-amine] | – | – | > 10 | – |
| Cc1cc(N2CCC3(CC2)Cc2ccccc2[C@H]3N)n2cnnc2c1Sc1ccnc(N)c1Cl [Example 18, (S)-1′-(8-((2-amino-3-chloropyridin-4-yl)thio)-7-methyl-[1,2,4]triazolo [4,3-a]pyridin-5-yl)-1,3-dihydrospiro [indene-2,4′-piperidine]-1-amine] | 24.6 | 0.86 | – | – |
| Cc1cc(N2CCC(C)(N)CC2)n2ccnc2c1-c1cccc(Cl)c1Cl [Example 24, 1-(8-(2,3-dichlorophenyl)-7-methylimidazolo [1,2-a]pyridin-5-yl)-4-methylpiperidin-4-amine] | 706 | – | 5.4 | – |

Continued, in another order:

| IC50 (SHP2 enzyme) [nM] | IC50 (MV4-11 leukemia cells; Homo sapiens, MV4-11, 72 h) [µM] | IC50 (MV4-11 leukemia cells; [1]) [µM] | SMILES | IC50 (MV4-11 leukemia cells; 72 h) [µM] |
| --- | --- | --- | --- | --- |
| 2.9 | 0.0247 | – | Nc1nccc(Sc2c(CF)nc(N3CCC4(CC3)Cc3ccccc3[C@H]4N)n3ccnc23)c1Cl [Example 12, (S)-1′-(8-((2-amino-3-chloropyridin-4-yl)thio)-7-(fluoromethyl)imidazo [1,2-c]pyrimidin-5-yl)-1,3-dihydrospiro [indene-2,4′-piperidine]-1-amine] | – |
| 1.8 | 0.0392 | – | Cc1nc(N2CCC3(CC2)Oc2ccccc2[C@H]3N)n2ccnc2c1Sc1ccnc(N)c1Cl [Example 13, (R)-1′-(8-((2-amino-3-chloropyridin-4-yl)thio)-7-methylimidazo [1,2-c]pyrimidin-5-yl)-3H-spiro [benzofuran-2,4′-piperidine]-3-amine] | – |
| – | 0.0313 | – | Cc1nc(N2CCC3(CC2)Cc2ccccc2[C@H]3N)n2ccnc2c1Sc1cccnc1C(F)(F)F [Example 2] | – |
| 0.8 | < 0.0015 | – | Nc1nc(N2CCC3(CC2)Cc2ccccc2[C@H]3N)n2ccnc2c1Sc1cccnc1C(F)(F)F [Example 5] | – |
| 9.5 | 0.108 | – | Cc1nc(N2CCC3(CC2)Cc2ccccc2[C@H]3N)n2ccnc2c1-c1cccnc1C(F)(F)F [Example 16, (S)-1′-(7-methyl-8-(2-(trifluoromethyl)pyridin-3-yl)imidazo [1,2-c]pyrimidin-5-yl)-1,3-dihydrospiro [indene-2,4′-piperidine]-1-amine] | – |
| 3.7 | 0.012 | – | Cc1nc(N2CCC3(CC2)Cc2cc(F)c(F)cc2[C@H]3N)n2ccnc2c1Sc1ccnc(N)c1Cl [Example 8, (S)-1′-(8-((2-amino-3-chloropyridin-4-yl)thio)-7-methylimidazo [1,2-c]pyrimidin-5-yl)-5,6-difluoro-1,3-dihydrospiro [indene-2,4′-piperidine]-1-amine] | – |
| 9.1 | 0.048 | – | Cc1cc(N2CCC3(CC2)Cc2ccccc2[C@H]3N)n2ccnc2c1Sc1ccnc(N)c1Cl [Example 17, (S)-1′-(8-((2-amino-3-chloropyridin-4-yl)thio)-7-methylimidazo [1,2-a]pyridin-5-yl)-1,3-dihydrospiro [indene-2,4′-piperidine]-1-amine] | – |
| 1 | 0.0028 | – | Cc1nc(N2CCC3(CC2)Cc2ccccc2[C@H]3N)n2ccnc2c1Sc1ccnc(NC2CC2)c1Cl [Example 3, (S)-1′-(8-((3-chloro-2-(cyclopropylamino)pyridin-4-yl)thio)-7-methylimidazo [1,2-c]pyrimidin-5-yl)-1,3-dihydrospiro [indene-2,4′-piperidine]-1-amine] | – |
| 3.8 | 0.0094 | – | Cc1nc(N2CCC3(CC2)Cc2ccccc2C3N)n2ccnc2c1Sc1ccnc(N)c1Cl (centres unmarked) [Example 20, 1′-(8-((2-amino-3-chloropyridin-4-yl)thio)-7-methylimidazo [1,2-c]pyrimidin-5-yl)-1,3-dihydrospiro [indene-2,4′-piperidine]-1-amine] | – |
| 3.1 | 0.0184 | – | Cc1nc(N2CCC3(CC2)Cc2ncsc2[C@H]3N)n2ccnc2c1Sc1ccnc(N)c1Cl [Example 14, (S)-1′-(8-((2-amino-3-chloropyridin-4-yl)thio)-7-methylimidazo [1,2-c]pyrimidin-5-yl)-4,6-dihydrospiro [cyclopentano [d]thiazol-5,4′-piperidine]-6-amine] | – |
| 1.3 | 0.0087 | – | Cc1nc(N2CCC3(CC2)Cc2ncccc2[C@H]3N)n2ccnc2c1Sc1ccnc(N)c1Cl [Example 6, (S)-1′-(8-((2-amino-3-chloropyridin-4-yl)thio)-7-methylimidazo [1,2-c]pyrimidin-5-yl)-5,7-dihydrospiro [cyclopentano [b]pyridine-6,4′-piperidine]-5-amine] | – |
| 2.1 | 0.0093 | – | COc1ccc2c(c1)[C@@H](N)C1(CCN(c3nc(C)c(Sc4ccnc(N)c4Cl)c4nccn34)CC1)C2 [Example 7, (S)-1′-(8-((2-amino-3-chloropyridin-4-yl)thio)-7-methylimidazo [1,2-c]pyrimidin-5-yl)-6-methoxy-1,3-dihydrospiro [indene-2,4′-piperidine]-1-amine] | – |
